Measurements from US5783179A, “C-reactive protein fragment with immunomodulatory activity” (Syntex (U.S.A.) Inc., priority 1991, dated 1998).

Test system: T241 fibrosarcoma lung metastases
Test: Mouse T241 fibrosarcoma model: evaluation of lung metastases after amputation of the tumor-bearing foot
Format: in vivo, male C57BL/6 mice
Details: Day 35, soluble CRP-peptide 1.25 μg per dose
Experimental: The CRP-peptide was assayed for activity in the mouse T241 fibrosarcoma model, whereby the ability to block lung metastasis formation is measured.
The procedures have been described in detail previously (Deodhar, et al, Cancer Res 42:5084-5088, 1982). Suspensions of 5×10^5 viable T241 fibrosarcoma cells in 0.1 ml of Hanks's balanced salt solution were injected subcutaneously into the dorsum of one hind foot of ten male C57BL/6 mice (Jackson Laboratories, Bar Harbor, Me.) per experiment. Seventeen days after tumor implantation, the tumor-bearing foot was amputated below the knee. The mean tumor weight at this stage was 152 ±58 (S.E.M.) mg. The tumor weight was determined by subtracting the weight of an amputated normal foot from that of a tumor-bearing foot. Previous studies have shown that T241 fibrosarcoma starts seeding the lung parenchyma by Day 10 after foot tumor implantation; by Day 17, virtually all animals have lung macro- and/or micrometastases. The animals were then randomized into control and experimental groups, and appropriate therapy was started after amputation of the tumor-bearing foot.
Treatments consisted of intravenous (orbital sinus) injections of liposomes containing CRP, liposomal CRP-peptide of Example 2, or liposomal CRP-peptide of Example 2 plus intraperitoneal injections of non-encapsulated soluble recombinant interleukin-2 (Cetus Corp., Emeryville, Calif.), or non-encapsulated interleukin-2 (IL-2) alone, whereas the control groups received either no treatment, liposomes containing buffer medium alone, or liposomes containing buffer medium plus non-encapsulated CRP peptide. […] On Day 35 of the experiment, all animals were killed, and the lungs were evaluated for number and size of metastases.
Tumor metastases could be clearly recognized as raised, hemorrhagic, opaque, and dense nodules, distinguishable from the smooth, glistening, spongy, and pink normal lung parenchyma. […] To obtain an approximate assessment of the total metastatic tumor burden in the lungs, the "metastatic index", reflecting both number and size of metastases, was calculated as follows. […]

H-IYLGGPFSPNVL-OH [Soluble CRP-peptide] was tested, and the “No. of Metastatic Foci (+ SEM)” value (MLV: 0.25 μg CRP or CRP-peptide i.v. 3x per week for 2 weeks) was 12.9 ± 2.9, the “No. Animals with Lung Metastases” value (MLV: 2.5 μmols lipid containing 0.25 μg CRP or CRP-peptide i.v. 3x per week for 2 weeks) was 10/10 and the “Metastatic Index (+ SEM)” value (mean of group, MLV: 0.25 μg CRP or CRP-peptide i.v. 3x per week for 2 weeks) was 49.7 ± 10.1.
